Data on 31 compounds can be found in US20220144853A1, “IMIDAZOLINE DERIVATIVES AS CXCR4 MODULATORS” (Université de Paris, priority 2019, published 2022).

Where a name gives a salt, the structure may show the parent alone.

For the experiment, the system named is IFN production by activated PBMCs. In words: IFN production by R848-activated PBMCs from healthy donors, twINNE reporter cell line. In kind it is cell-based, human. The following applies: Homo sapiens, PBMC, means of two results over 2 healthy donors, R848 5 μg/mL, IT1t: mean over all experiments, read-out: IC50 of anti-inflammatory activity (IFN production). As for the experimental part: 2) The blood from healthy donors was also obtained from “Etablissement Français du Sang” (convention #19/EFS/029), Paris, France.
In vitro experiments were performed using human peripheral blood mononuclear cells (PBMCs) isolated by density centrifugation from peripheral blood leukocyte separation medium, lymphoprep (Stemcell Technologies).
PBMCs were cultured in RPMI 1640 (Sigma-Aldrich, MO, USA) containing 10% heat-inactivated fetal bovine serum (Sigma-Aldrich, MO, USA) at 37° C./5% CO2.
2) The PBMCs used herein were prepared as described in part A “immune cells preparation”, section 2) above. PBMCs were seeded at 4.10^6/mL. […] Cells were then stimulated with the TLR7/8 agonist resiquimod—R848 (Sigma-Aldrich, MO, USA) at 5 μg/mL.
2) To quantify the secretion of functional IFN, a biological assay based on a stable cell line where luciferase reporter gene is controlled by five Interferon-Stimulated Response Elements (twINNE cell line) was used. It is important to note that the twINNE cell line is the same as the above mentioned STING-37 cell line but with constitutively expressed nanoluciferase. First, supernatants of R848-stimulated PBMCs (see part B, section 2) above) were harvested after 24 h of stimulation and frozen at −20° C. for storage. Then, supernatants were dispensed in culture wells of a 96-well plate containing 35.103 twINNE cells per well in Dulbecco's Modified Eagle's Medium supplemented with 10% Foetal Bovine Serum, 100 U/mL Penicillin and 100 μg/mL Streptomycin (1% Pen-Strep) and 1 mM glutamine (Sigma-Aldrich, MO, USA) at 37° C./5% […]. After 24 h of culture, luciferase activity was determined by adding 60 μL of Bright-Go reagents (Promega, Wisconsin, USA) to culture wells and measuring bioluminescence with EnSpire Multimode Plate Reader (PerkinElmer, Massachusetts, USA). When stated, for IC50 calculation, dose-response curves fitted using the nonlin fit (variable slope) analysis in GraphPad Prism software (GraphPad Software, California, USA).
For the compound `CC1(C)CN2C(CSC3=NCC4(CC4)N3)=CSC2=N1` [Example 24, 3-(((4,6-diazaspiro[2.4]hept-5-en-5-yl)thio)methyl)-6,6-dimethyl-5,6-dihydroimidazo[2,1-b]thiazole dihydrochloride], the IC50 (commonly the concentration at which inhibition is half-maximal) was 10 to 31 µM.

As for `CC1(C)CN2C(CSC3=N[C@H]4COC[C@H]4N3)=CSC2=N1` [Example 25, (3aR,6aS)-2-(((6,6-dimethyl-5,6-dihydroinidazo[2,1-b]thiazol-3-yl)methyl)thio)-3a,4,6,6a-tetrahydro-1H-furo[3,4-d]imidazole dihydrochloride], the IC50 was not below 31 µM.

Consider `C1=C(CSC2=NCCN2)N2CCCN=C2S1` [Example 26, 3-(((4,5-dihydro-1H-imidazol-2-yl)thio)methyl)-6,7-dihydro-5H-thiazolo[3,2-a]pyrimidine dihydrochloride], for which the IC50 was not below 31 µM.

`C1=C(CSC2=NCCN2)N2CCCCN=C2S1` [Example 27, 3-(((4,5-dihydro-1H-imidazol-2-yl)thio)methyl)-5,6,7,8-tetrahydrothiazolo[3,2-a][1,3]diazepine dihydrochloride]: the IC50 is not below 31 µM.

On to `CC1(C)CN=C(SCC2=CSC3=NC(C)(C)CN23)NC1` [Example 28, 3-(((5,5-dimethyl-1,4,5,6-tetrahydropyrimidin-2-yl)thio)methyl)-6,6-dimethyl-5,6-dihydroimidazo[2,1-b]thiazole dihydrochloride], for which the 50% inhibitory concentration (IC50) is not below 31 µM.

Turning to `C1=C(CSC2=NCCCN2)N2CCCN=C2S1` [Example 29, 3-(((1,4,5,6-tetrahydropyrimidin-2-yl)thio)methyl)-6,7-dihydro-5H-thiazolo[3,2-a]pyrimidine dihydrochloride], the IC50 was not below 31 µM.

With `CCCCC1CN=C(SCC2=CSC3=NCCN23)N1` (stereo not shown) [Example 30, 3-(((5-butyl-4,5-dihydro-1H-imidazol-2-yl)thio)methyl)-5,6-dihydroimidazo[2,1-b]thiazole dihydrochloride], the IC50 is not above 10 µM.

In the case of `CC1(C)CN=C(SCCCc2cccnc2)N1` [Example 31, 3-(3-((5,5-dimethyl-4,5-dihydro-1H-imidazol-2-yl)thio)propyl)pyridine dihydrochloride], the IC50 was not below 31 µM.

As for `CC1(C)CN=C(SCc2cccnc2)N1` [Example 32, 3-(((5,5-dimethyl-4,5-dihydro-1H-imidazol-2-yl)thio)methyl)pyridine dihydrochloride], the IC50 was not below 31 µM.

Regarding `CC1(C)CN=C(SCC2=CSC3=NC4(CC4)CN23)N1` [Example 33, dihydrochloride], the IC50 is not below 31 µM.

For `CC1(C)CN=C2SC=C(CSC3=NCC(C)(C)N3)N2C1` [Example 34, 3-(((5,5-dimethyl-4,5-dihydro-1H-imidazol-2-yl)thio)methyl)-6,6-dimethyl-6,7-dihydro-5H-thiazolo[3,2-a]pyrimidine dihydrochloride], the IC50 is not below 31 µM.

Turning to `C1=C(CSC2=NCCCN2)N2CCN=C2S1` [Example 35, 3-(((1,4,5,6-tetrahydropyrimidin-2-yl)thio)methyl)-5,6-dihydroimidazo[2,1-b]thiazole dihydrochloride], the IC50 was not below 31 µM.

Consider `C1=C(CSC2=NCCCN2)N2CCCCN=C2S1` [Example 37, 3-(((1,4,5,6-tetrahydropyrimidin-2-yl)thio)methyl)-5,6,7,8-tetrahydrothiazolo[3,2-a][1,3]diazepine dihydrochloride], for which the IC50 is not below 31 µM.

Take `CC1(C)CN=C(SCCCn2ccnc2)N1` [Example 38, 1-(3-((5,5-dimethyl-4,5-dihydro-1H-imidazol-2-yl)thio)propyl)-1H-imidazole dihydrochloride]: the IC50 was not below 31 µM.

On to `CC1(C)CN2C(CSC3=NCC4(CCCCC4)N3)=CSC2=N1` [Example 39, 3-(((1,3-diazaspiro[4.5]dec-2-en-2-yl)thio)methyl)-6,6-dimethyl-5,6-dihydroimidazo[2,1-b]thiazole dihydrochloride], for which the IC50 fell in the range of 10 to 31 µM.

Turning to `CC1(C)CN2C(CSC3=NCC4CCCCC4N3)=CSC2=N1` (stereo not shown) [Example 40, 6,6-dimethyl-3-(((1,4,4a,5,6,7,8,8a-octahydroquinazolin-2-yl)thio)methyl)-5,6-dihydroimidazo[2,1-b]thiazole dihydrochloride], the IC50 was not below 31 µM.

As for `CC1(C)CN=C(SCCc2cccc3ncccc23)N1` [Example 41, 5-(2-((5,5-dimethyl-4,5-dihydro-1H-imidazol-2-yl)thio)ethyl)quinoline dihydrochloride], the IC50 is not below 31 µM.

Consider `CC1(C)CN=C(SCC2=CSC3=NC4(CCCCC4)CN23)N1` [Example 42, 3′-(((5,5-dimethyl-4,5-dihydro-1H-imidazol-2-yl)thio)methyl)-5′H-spiro[cyclohexane-1,6′-imidazo[2,1-b]thiazole] dihydrochloride], for which the IC50 lay in the range of 10 to 31 µM.

Consider `CC1(C)CN=C(SCC2=CSC3=NC4CCCCC4CN23)N1` (stereo not shown) [Example 43, 3-(((5,5-dimethyl-4,5-dihydro-1H-imidazol-2-yl)thio)methyl)-5a,6,7,8,9,9a-hexahydro-5H-thiazolo[2,3-b]quinazoline dihydrochloride], for which the IC50 lay in the range of 10 to 31 µM.

Turning to `C1=C(CSC2=N[C@@H]3CCCC[C@H]3N2)N2CCN=C2S1` [Example 44, 3-((((3aR,7aR)-3a,4,5,6,7,7a-hexahydro-1H-benzo[d]imidazol-2-yl)thio)methyl)-5,6-dihydroimidazo[2,1-b]thiazole dihydrochloride], the IC50 is not above 10 µM.

Regarding `C1=C(CSC2=N[C@@H]3CCCC[C@H]3N2)N2CCCN=C2S1` [Example 45, 3-((((3aR,7aR)-3a,4,5,6,7,7a-hexahydro-1H-benzo[d]imidazol-2-yl)thio)methyl)-6,7-dihydro-5H-thiazolo[3,2-a]pyrimidine dihydrochloride], the IC50 was not below 31 µM.

In the case of `C1=C(CSC2=N[C@@H]3CCCC[C@H]3N2)N2CCCCN=C2S1` [Example 46, 3-((((3aR,7aR)-3a,4,5,6,7,7a-hexahydro-1H-benzo[d]imidazol-2-yl)thio)methyl)-5,6,7,8-tetrahydrothiazolo[3,2-a][1,3]diazepine dihydrochloride], the IC50 is not below 31 µM.

For `CC1(C)CN=C(SCCn2ccnc2)N1` [Example 47, 1-(2-((5,5-dimethyl-4,5-dihydro-1H-imidazol-2-yl)thio)ethyl)-1H-imidazole dihydrochloride], the IC50 was not below 31 µM.

In the case of `C1=C(CSC2=NCC(Cc3ccccc3)N2)N2CCCN=C2S1` (stereo not shown) [Example 48, 3-(((5-benzyl-4,5-dihydro-1H-imidazol-2-yl)thio)methyl)-6,7-dihydro-5H-thiazolo[3,2-a]pyrimidine dihydrochloride], the IC50 was not above 10 µM.

As for `CC(C)C1CN=C(SCC2=CSC3=NC(C)(C)CN23)N1` (stereo not shown) [Example 49, 3-(((5-isopropyl-4,5-dihydro-1H-imidazol-2-yl)thio)methyl)-6,6-dimethyl-5,6-dihydroimidazo[2,1-b]thiazole dihydrochloride], the IC50 is 10 to 31 µM.

With `CC1(C)CN=C(SCC2=CSC3=NC(c4ccccc4)CN23)N1` (stereo not shown) [Example 50, 3-(((5,5-dimethyl-4,5-dihydro-1H-imidazol-2-yl)thio)methyl)-6-phenyl-5,6-dihydroimidazo[2,1-b]thiazole dihydrochloride], the IC50 lay within 10 to 31 µM.

With `CCCCC1CN=C(SCC2=CSC3=NC(Cc4ccccc4)CN23)N1` (stereo not shown) [Example 51, 6-benzyl-3-(((5-butyl-4,5-dihydro-1H-imidazol-2-yl)thio)methyl)-5,6-dihydroinidazo[2,1-b]thiazole dihydrochloride], the IC50 is not above 10 µM.

As for `CC(C)C1CN2C(CSC3=NCC(C)(C)N3)=CSC2=N1` (stereo not shown) [Example 52, 3-(((5,5-dimethyl-4,5-dihydro-1H-imidazol-2-yl)thio)methyl)-6-isopropyl-5,6-dihydroimidazo[2,1-b]thiazole dihydrochloride], the IC50 was 10 to 31 µM.

For the compound `CC1(C)CN2C(CSC3=NCC(c4ccccc4)N3)=CSC2=N1` (stereo not shown) [Example 53, 6,6-dimethyl-3-(((4-phenyl-4,5-dihydro-1H-imidazol-2-yl)thio)methyl)-5,6-dihydroimidazo[2,1-b]thiazole dihydrochloride], the IC50 was not above 10 µM.

Take `CN1CCCN=C1SCC1=CSC2=NC(C)(C)CN12` [Example 57, 6,6-dimethyl-3-(((1-methyl-1,4,5,6-tetrahydropyrimidin-2-yl)thio)methyl)-5,6-dihydroimidazo[2,1-b]thiazole dihydrochloride]: the IC50 is not below 31 µM.

With `CC(C)[C@@H]1N=C(SCC2=CSC3=NC(C)(C)CN23)N[C@H]1C(C)C` [Example 58, 3-((((4S,5S)-4,5-diisopropyl-4,5-dihydro-1H-imidazol-2-yl)thio)methyl)-6,6-dimethyl-5,6-dihydroimidazo[2,1-b]thiazole dihydrochloride], the IC50 is not below 31 µM.
